Measured values published in patent US20100179089A1, “Compositions and Methods to Manage the Inflammatory Basis of Chronic Disease Conditions and Maintain an Optimal Immune Response in Elderly” (priority 2009, published 2010).
Like-named read-outs stand apart in the source and are kept apart here.

Columns and labels:
protein synthesis = experiment: Amino acid supplementation and protein synthesis in normal, inflamed and inflamed with DHA conditions (FIG. 4); settings: conditions of inflammation (FIG. 4)
Text: Given the observed changes in protein intake and observed changes in protein synthesis in aging, it is believed that a hyperinflammed state compromises protein synthesis and further accentuates chronic disease related to arginine deficiency and malnutrition.
Omega-3 fatty acids, including but not limited to alpha-linolenic acid (ALA), eicosapentaenoic (EPA) and docosahexaenoic acids (DHA); omega-6 linoleic acid; and borage oil (also an omega-6 fatty acid) are currently used in different diets with the intention to improve immune dysfunction. […] Used with omega-3 fatty acids, arginine is believed to be more available to provide a normal response under conditions of inflammation. Dietary intake of omega-3 fatty acids by the elderly may favorably shift the balance in the production of PGE2, via […] and downregulation of arginase (as shown in FIG. 6) and, consequently, help avoid arginine deficiency and thereby improve or maintain optimal immune system function. […] The products of omega-6 fatty acid metabolism are believed to contribute to arginine deficiency and inflammation in this way. There have been numerous studies showing the benefits of dietary omega-3 fatty acids over omega-6 fatty acids in various physiologic conditions including coronary artery disease, chronic inflammatory conditions such as cancer, and other inflammatory mediated states.

muscle protein synthesis [1] = settings: pigs with a sepsis-like syndrome, arginine supplementation; cited from earlier work
muscle protein synthesis [2] = settings: cited from earlier work

For `CC/C=C\C/C=C\C/C=C\C/C=C\C/C=C\C/C=C\CCC(=O)O` [DHA, docosahexaenoic acids], the Protein synthesis (protein synthesis) was “improves the efficacy of arginine delivery in promoting protein synthesis”.
For `N=C(N)NCCC[C@H](N)C(=O)O` [arginine], the Muscle protein synthesis (muscle protein synthesis [1]) is listed as “improved”, the Muscle protein synthesis (muscle protein synthesis [2]; anesthetized rabbits, infusion) is listed as “stimulated” and the Muscle protein breakdown (muscle protein synthesis [2]; post-absorptive rabbits, arginine added to the amino acid solution) is listed as “unchanged”.
